# Assay results: ChEMBL document CHEMBL1201862, “PubChem BioAssay data set” (2004)
# “And” between values parts separate entries of the source, which are not always exact repeats. Equal entries are not always repeated.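 How tested: cells in 96-well plates exposed to compound for 48 hours at five concentrations. Abbreviation: GI50, concentration required for 50% inhibition of growth.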 The source made the active and inactive calls. No stated cut-off is given here; in the data, active = GI50 up to about 1.1 µM and inactive = higher.
# Experiments:
# Test in all cases: NCI-60 cell line screen, 48 h
# [1] = test system: XF498
# [2] = test system: KM-20L2
# [3] = test system: DLD-1
# [4] = test system: DMS-273
# [5] = test system: M19-MEL
# [6] = test system: SNB-78
# [7] = test system: LXFL 529
# [8] = test system: RXF 631
# [9] = test system: MDA-N
Compound,GI50 [2],GI50 [7],GI50 [9],further results
CCCCCCCCCCCCCCCCCCOCC1(COP(=O)([O-])OCC[N+](C)(C)C)CCCO1 (centres undefined),3.26 µM (inactive),4.92 µM (inactive),–,GI50 [1]: 7.64 µM (inactive); GI50 [3]: 3.65 µM (inactive); GI50 [4]: 1.75 µM (inactive); GI50 [5]: 2.99 µM (inactive); GI50 [6]: 8.17 µM (inactive)
CC1CC2C3CCC4=CC(=O)C=CC4(C)C3(F)C(O)CC2(C)C1(O)C(=O)CO.Cc1cc(NS(=O)(=O)c2ccc(/N=N\c3cc(/N=N/c4ccc(S(=O)(=O)Nc5cc(C)nc(C)n5)cc4)c(OC(=O)C(Cl)Cl)c4cccc(NC(=O)C(Cl)Cl)c34)cc2)nc(C)n1,25.6 µM (inactive),10 µM (inactive),–,GI50 [3]: 18 µM (inactive); GI50 [4]: 21.5 µM (inactive); GI50 [5]: 30.8 µM (inactive); GI50 [6]: 33.1 µM (inactive)
CCN(CC)c1c(C(=O)/C=C/c2ccccc2)c(-c2ccccc2)nn(C)c1=O,5.06 µM (inactive),5.01 µM (inactive),–,GI50 [1]: 11.2 µM (inactive); GI50 [3]: 3.27 µM (inactive); GI50 [4]: 4.98 µM (inactive); GI50 [5]: > 100 µM (inactive)
Cc1cc2c(=O)cc(-c3ccc(C(=O)O)cc3)oc2c(C(=O)O)c1C,> 100 µM (inactive),> 100 µM (inactive),–,GI50 [8]: > 100 µM (inactive); GI50 [3]: > 100 µM (inactive); GI50 [4]: > 100 µM (inactive); GI50 [5]: > 100 µM (inactive); GI50 [6]: > 100 µM (inactive)
C=C(Cl)C(Cl)(CBr)CCC(Br)C(C)(C)Cl (centres undefined),–,–,2.28 µM (inactive) and 964 nM (active) and 8.77 µM (inactive),–
CCC1OCCN1C(C)C (centres undefined),> 100 µM (inactive),> 100 µM (inactive),–,GI50 [3]: 92 µM (inactive); GI50 [4]: 69.2 µM (inactive); GI50 [5]: 71.4 µM (inactive); GI50 [6]: > 100 µM (inactive)
O=C1/C(=C\c2ccc([N+](=O)[O-])o2)SC2NC(COc3ccc(Cl)cc3)=NN12 (centres undefined),–,–,3.48 µM (inactive),–
CC(C)C1(NC(=O)C2CC3c4cccc5[nH]cc(c45)CC3N(C)C2)OC2(O)C3CCCN3C(=O)C(Cc3ccccc3)N2C1=O (centres undefined),–,–,22.3 µM (inactive),–
COC(=O)C1=C(OC(=O)/C(=C/c2ccccc2)c2ccc(Cl)cc2)C(C(=O)OC)[C@@]2(O)[C@@H](C(=O)OC)[C@H](C)C[C@@H]1[C@@H]2C(=O)OC (some centres undefined),–,–,> 100 µM (inactive),–
O=C(/C=C/c1cccs1)c1cccc(C(=O)/C=C/c2cccs2)n1,–,–,28.2 µM (inactive),–
COc1cc(C(=O)OC2CC(C)=CC[C@@]3(C)CC[C@](O)(C(C)C)C23)ccc1O (some centres undefined),–,–,18.3 µM (inactive),–
CCOc1cc(CCNC)c2c(ccc3ccc(OC)c(O)c32)c1OC,–,–,2.49 µM (inactive),–
C[C@]12Cc3cn[nH]c3C(=O)C1CC[C@@H]1C2CC[C@@]2(C)C1CC[C@@H]2O (some centres undefined),> 100 µM (inactive),> 100 µM (inactive),–,GI50 [1]: > 100 µM (inactive); GI50 [4]: > 100 µM (inactive); GI50 [6]: > 100 µM (inactive)
COC(=O)/N=C(\NC(=O)OC)Nc1ccc(Oc2ccccc2)cc1NC=O,0.242 µM (active),0.667 µM (active),–,GI50 [1]: 0.369 µM (active); GI50 [3]: 0.536 µM (active); GI50 [5]: 0.312 µM (active)
O=C(NCCc1n[nH]c2c1C(=O)C=C(Nc1ccccc1)C2=O)OCc1ccccc1,–,–,> 100 µM (inactive),–
CN(C(=O)Nc1ccc(Cl)c(Cl)c1)C1CCCC[C@@H]1N1CCCC1 (some centres undefined),–,–,34 µM (inactive),–
Clc1cc(OCC23CC4CC(CC(C4)C2)C3)nc(OCC23CC4CC(CC(C4)C2)C3)n1,–,–,> 100 µM (inactive),–
COC1C(O)C(C)OC(OC2C(Oc3cccc4c(O)c5c(=O)oc6ccc(C)c7c(=O)oc(c34)c5c67)OC(C)C3O[C@H](c4ccccc4)OC32)C1O (some centres undefined),0.055 µM (active),0.0678 µM (active),0.372 µM (active),GI50 [8]: 0.0314 µM (active); GI50 [3]: 0.0456 µM (active); GI50 [4]: 0.0206 µM (active); GI50 [5]: 0.156 µM (active); GI50 [6]: 0.875 µM (active)
COc1ccc(OC)c2c(C(=O)O)c(C(C)c3ccccc3)ccc12 (centres undefined),> 100 µM (inactive),> 100 µM (inactive),–,GI50 [8]: > 100 µM (inactive); GI50 [3]: > 100 µM (inactive); GI50 [4]: > 100 µM (inactive); GI50 [5]: > 100 µM (inactive)
CCC(CC)C(=O)OC[n+]1cccc(-c2c(COC(=O)NC(C)C)c(COC(=O)NC(C)C)c3n2CCC3)c1,–,–,> 100 µM (inactive),–
O=C(NNC(=S)Nc1ccccc1)C12CC3CC(CC(C3)C1)C2,–,–,26.8 µM (inactive),–
O=C(Nc1nnc(-c2c(Cl)c(Cl)c(Cl)c(Cl)c2-c2nc3cc(C(=O)c4ccccc4)ccc3[nH]2)o1)c1ccccc1,–,–,3.19 µM (inactive),–
CO[C@]1(c2ccc([N+](=O)[O-])cc2)Oc2ccccc2C(=O)[C@@]1(Nc1ccc(C=O)cc1)OC,–,–,> 10 µM (inactive),–
O=C1C=C2C(=NC34CCCCC3C(c3ccccc3)C3=C(c5ccccc5CC3)N24)c2ccccc21 (centres undefined),–,–,> 10 µM (inactive),–
Nc1ncnc2c1ncn2[C@H]1C=C[C@@H](NO)C1,–,–,> 100 µM (inactive),–
COc1cccc(N2N=C3c4ccccc4-n4c(nc5ccccc54)C3C2N)c1 (centres undefined),–,–,> 100 µM (inactive),–
CSc1c(C(=O)Nc2ccc(Cl)cc2)c(N)n(N)c(=O)c1C#N,–,–,> 100 µM (inactive),–
